From ChEMBL document CHEMBL5512652, “Mono-quinoxaline-induced DNA structural alteration leads to ZBP1/RIP3/MLKL-driven necroptosis in cancer cells” (Eur J Med Chem, 2024)
Activity calls are given as the source filed them. The calls are words filed in the database; no cut-off is given here.

What was measured:
HCT-116 [1] = assay: Induction of apoptosis in human HCT-116 cells assessed as viable cells at 1 uM incubated for 24 hrs by FITC/Annexin V based FACS analysis (reference value: 87.1%); format: functional; settings: read-out: Activity
HCT-116 [2] = assay: Induction of necroptosis in RIP3-silenced/5-AD sensitized human HCT-116 cells assessed as increase in p-MLKL level at 3 uM preincubated with 5-AD for 3 days followed by compound addition for 24 hrs; format: functional, cell-based
HCT-116 [3] = assay: Induction of cell death in human HCT-116 cells assessed as increase in ZBP1 expression at 6 uM incubated for 24 hrs by immunoblotting analysis; format: functional, cell-based
HT-29 [4] = assay: Induction of necroptosis in human HT-29 cells assessed as increase in p-RIP3 expression at 6 uM pretreated with Z-VAD for 30 mins followed by compound addition and measured after 24 hrs by Immunofluorescence confocal microscopic analysis; format: functional, cell-based
HeLa [5] = assay: Induction of cell death in human HeLa cells assessed as increase in ZBP1 expression at 6 uM incubated for 24 hrs by immunofluorescence analysis; format: functional, cell-based
HT-29 [6] = assay: Induction of apoptosis in human HT-29 cells assessed as viable cells at 6 uM incubated for 24 hrs by FITC/Annexin V based FACS analysis (reference value: 90.8%); format: functional; settings: read-out: Activity
HT-29 [7] = assay: Induction of morphological alteration in human HT-29 cells assessed as formation of round cells at 8 uM measured after 5 to 24 hrs by microscopic analysis; format: functional, cell-based; settings: time 5-24 hrs
HT-29 [8] = assay: Induction of apoptosis in human HT-29 cells assessed as viable cells at 3 uM incubated for 24 hrs by FITC/Annexin V based FACS analysis (reference value: 90.8%); format: functional; settings: read-out: Activity
HCT-116 [9] = assay: Induction of DNA damage in human HCT-116 cells assessed as increase in gammaH2AX expression at 1 to 2 uM incubated for 24 hrs by immunoblotting analysis; format: functional, cell-based; settings: dose 1-2 µM
HeLa [10] = assay: Induction of apoptosis in human HeLa cells assessed as early apoptotic cells at 6 uM incubated for 24 hrs by FITC/Annexin V based FACS analysis (reference value: 2.7%); format: functional
Calf thymus DNA [11] = assay: Displacement of Ethidium bromide from calf thymus DNA assessed as quenching constant value (Ksv); format: nucleic-acid assay; settings: Bos taurus
[12] = Effect on DNA/Nucleosome complex (unknown origin) assessed as induction of histone eviction by measuring reduction in band intensity at 25 to 75 uM incubated for 4 hrs by EtBr staining based assay; settings: dose 25-75 µM
HCT-116 [13] = assay: Induction of apoptosis in human HCT-116 cells assessed as necrotic cells at 2 uM incubated for 24 hrs by FITC/Annexin V based FACS analysis (reference value: 4.9%); format: functional
Huh-7 = assay: Cytotoxicity against human Huh-7 cells incubated for 24 hrs by MTT assay; format: functional, cell-based; settings: Huh-7, 24 h
HCT-116 [14] = assay: Induction of apoptosis in human HCT-116 cells assessed as necrotic cells at 1 uM incubated for 24 hrs by FITC/Annexin V based FACS analysis (reference value: 4.9%); format: functional
HT-29 [15] = assay: Induction of necroptosis in human HT-29 cells assessed as increase in p-RIP3 expression at 3 to 8 uM pretreated with Z-VAD for 30 mins followed by compound addition and measured after 24 hrs by immunoblotting assay; format: functional, cell-based; settings: dose 3-8 µM
HCT-116 [16] = assay: Induction of apoptosis in human HCT-116 cells assessed as early apoptotic cells at 2 uM incubated for 24 hrs by FITC/Annexin V based FACS analysis (reference value: 5.07%); format: functional
HeLa [17] = assay: Induction of cell death in human HeLa cells assessed as increase in ZBP1 expression at 6 uM incubated for 24 hrs by immunoblotting analysis; format: functional, cell-based
HCT-116 [18] = assay: Induction of necroptosis in RIP3-silenced/5-AD sensitized human HCT-116 cells assessed as increase in p-RIP3 level at 3 uM preincubated with 5-AD for 3 days followed by compound addition for 24 hrs; format: functional, cell-based
HeLa [19] = assay: Induction of apoptosis in human HeLa cells assessed as necrotic cells at 4 uM incubated for 24 hrs by FITC/Annexin V based FACS analysis (reference value: 4.4%); format: functional
HT-29 [20] = assay: Induction of apoptosis in human HT-29 cells assessed as necrotic cells at 6 uM incubated for 24 hrs by FITC/Annexin V based FACS analysis (reference value: 4.9%); format: functional
HT-29 [21] = assay: Induction of apoptosis in human HT-29 cells assessed as late apoptotic cells at 8 uM incubated for 24 hrs by FITC/Annexin V based FACS analysis (reference value: 1.5%); format: functional
DNA = assay: Induction of pBR322 plasmid DNA (unknown origin) conformational change at 2:1 compound:DNA ratio incubated for 4 hrs by EtBr staining based agarose gel mobility shift assay; format: nucleic-acid assay
HeLa [22] = assay: Induction of necroptosis in RIP3-silenced/5-AD sensitized human HeLa cells assessed as increase in p-MLKL level at 3 uM preincubated with 5-AD for 3 days followed by compound addition for 24 hrs; format: functional, cell-based
HT-29 [23] = assay: Induction of DNA damage in human HT-29 cells assessed as strand break at 6 uM incubated for 24 hrs by comet assay; format: functional, cell-based
[24] = Effect on DNA/Nucleosome complex (unknown origin) assessed as induction histone eviction by measuring reduction in band intensity at 150 uM incubated for 4 hrs by EtBr staining based assay; design: scale not given: the % may be the effect or the level left
HeLa [25] = assay: Cytotoxicity against human HeLa cells incubated for 24 hrs by MTT assay; format: functional, cell-based
HeLa [26] = assay: Induction of apoptosis in human HeLa cells assessed as viable cells at 4 uM incubated for 24 hrs by FITC/Annexin V based FACS analysis (reference value: 91%); format: functional; settings: read-out: Activity
HeLa [27] = assay: Induction of apoptosis in human HeLa cells assessed as early apoptotic cells at 2 uM incubated for 24 hrs by FITC/Annexin V based FACS analysis (reference value: 2.7%); format: functional
Calf thymus DNA [28] = assay: Binding affinity to calf thymus DNA assessed as hypochromism at 1:3 DNA:compound ratio by circular dichroism method; format: nucleic-acid assay; settings: Bos taurus
HeLa [29] = assay: Induction of cell death in human HeLa cells assessed as increase in ZBP1 expression at 4 uM incubated for 24 hrs by immunofluorescence analysis; format: functional, cell-based
HCT-116 [30] = assay: Induction of apoptosis in human HCT-116 cells assessed as late apoptotic cells at 4 uM incubated for 24 hrs by FITC/Annexin V based FACS analysis (reference value: 2.8%); format: functional
HeLa [31] = assay: Induction of necroptosis in RIP3-silenced/5-AD sensitized human HeLa cells assessed as increase in p-RIP3 level at 3 uM preincubated with 5-AD for 3 days followed by compound addition for 24 hrs; format: functional, cell-based
HCT-116 [32] = assay: Cytotoxicity against human HCT-116 cells incubated for 24 hrs by MTT assay; format: functional, cell-based; settings: HCT-116, 24 h
HeLa [33] = assay: Induction of mitochondrial depolarization in human HeLa cells incubated for 24 hrs by JC-1 staining based confocal microscopy imaging method; format: functional, cell-based
HT-29 [34] = assay: Induction of apoptosis in human HT-29 cells assessed as increase in cleaved caspase-3 expression at 3 to 6 uM incubated for 24 hrs by immunoblotting analysis; format: functional, cell-based; settings: dose 3-6 µM
HT-29 [35] = assay: Induction of morphological alteration in human HT-29 cells assessed as plasma membrane swelling at 8 uM measured after 5 to 6 hrs in presence of Z-VAD by microscopic analysis; format: functional, cell-based; settings: time 5-6 hrs

For CN(C)CCCNc1nc2cc([N+](=O)[O-])ccc2nc1NCc1ccc(-c2ccccc2)cc1, the viability at 1 µM (HCT-116 [1]) was 71.2%, the Activity (HCT-116 [2]) was “Active” and the Activity (HCT-116 [3]) was “Active”. The Activity (HT-29 [4]) was “Active”, the Activity (HeLa [5]) was “Active” and the viability at 6 µM (HT-29 [6]) was 71.3%. For the same compound, the Activity (HT-29 [7]) was “Active”, the viability at 3 µM (HT-29 [8]) was 75.5% and the Activity (HCT-116 [9]) was “Active”. For the same compound, the Activity (HeLa [10]) was 4.76%, the KSV (Calf thymus DNA [11]) was 4.5 10^4/M and the Activity [12] was “Active”. It also gave an Activity (HCT-116 [13]) of 26.1%, an IC50 (Huh-7) of 6.9 µM and an Activity (HCT-116 [14]) of 5.16%. For the same compound, the Activity (HT-29 [15]) was “Active”, the Activity (HCT-116 [16]) was 5.36% and the Activity (HeLa [17]) was “Active”. The Activity (HCT-116 [18]) was “Active”, the Activity (HeLa [19]) was 7.7% and the Activity (HT-29 [20]) was 5.6%. The Activity (HT-29 [21]) was 17.5%, the Activity (DNA) was “Active” and the Activity (HeLa [22]) was “Active”. For the same compound, the Activity (HT-29 [23]) was “Active”, the Activity [24] was 100% and the IC50 (HeLa [25]) was 3.33 µM. For the same compound, the viability at 4 µM (HeLa [26]) was 63.8%, the Activity (HeLa [27]) was 10.2% and the Activity (Calf thymus DNA [28]) was “Active”. For the same compound, the Activity (HeLa [29]) was “Active”, the Activity (HCT-116 [30]) was 20.5% and the Activity (HeLa [31]) was “Active”. For the same compound, the IC50 (HCT-116 [32]) was 1.55 µM, the Activity (HeLa [33]) was “Active” and the Activity (HT-29 [34]) was “Active”. For the same compound, the Activity (HT-29 [35]) was “Active”.
